Test results published in US9169254B2, “Spiroimidazolone derivative” (Chugai Seiyaku Kabushiki Kaisha, priority 2009, dated 2015).

Biological target: T1, human PTH1 receptor (Homo sapiens, UniProt Q03431)
T1 sequence (Q03431 27-593): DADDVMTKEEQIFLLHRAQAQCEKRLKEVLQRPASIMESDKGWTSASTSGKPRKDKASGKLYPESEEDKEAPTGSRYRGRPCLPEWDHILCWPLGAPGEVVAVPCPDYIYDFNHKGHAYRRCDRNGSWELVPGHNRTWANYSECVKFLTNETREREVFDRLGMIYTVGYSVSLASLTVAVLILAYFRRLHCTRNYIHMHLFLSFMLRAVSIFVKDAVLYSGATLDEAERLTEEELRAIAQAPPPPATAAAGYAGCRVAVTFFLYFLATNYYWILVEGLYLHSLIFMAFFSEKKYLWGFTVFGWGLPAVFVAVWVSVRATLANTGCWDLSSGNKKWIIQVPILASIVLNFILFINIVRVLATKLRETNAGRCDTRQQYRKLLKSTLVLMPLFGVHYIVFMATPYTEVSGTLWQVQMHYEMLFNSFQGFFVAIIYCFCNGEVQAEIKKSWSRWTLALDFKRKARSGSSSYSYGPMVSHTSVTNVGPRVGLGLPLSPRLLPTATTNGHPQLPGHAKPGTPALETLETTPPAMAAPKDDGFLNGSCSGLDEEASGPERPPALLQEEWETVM
Test: In vitro cAMP signal activity in HKRK-B7 cells (LLC-PK1 cells overexpressing the human PTH1 receptor)
Assay type: cell-based
Conditions: HKRK-B7 cells, compound at 1×10^−3 M

[1] = cAMP produced as percentage of that produced by hPTH(1-34) at 100 nM

Structure (SMILES) | cAMP production activity (%) [1] [%] | cAMP production activity (%) ([…], 0.1 µM)
Cc1cc(N(C)c2ncc[nH]2)cc(C)c1/C=C/S(=O)(=O)N1CCC2(CC1)N=C(C1CCC(C)CC1)NC2=O (stereo not shown) [Compound 586, 8-((E)-2-{4-[(1H-imidazol-2-yl)-methyl-amino]-2,6-dimethyl-phenyl}-ethenesulfonyl)-2-(4-methyl-cyclohexyl)-1,3,8-triaza-spiro[4.5]dec-1-en-4-one] | 82 | 
Cc1cc(N2CCC(=O)NC2=O)cc(C)c1/C=C/S(=O)(=O)N1CCC2(CC1)N=C(C1CCC(C)CC1)NC2=O (stereo not shown) [Compound 587, 1-(3,5-dimethyl-4-{(E)-2-[2-(4-methyl-cyclohexyl)-4-oxo-1,3,8-triaza-spiro[4.5]dec-1-ene-8-sulfonyl]-vinyl}-phenyl)-dihydro-pyrimidine-2,4-dione] | 53 | 
Cc1cc(N2NCCC2=O)ccc1/C=C/S(=O)(=O)N1CCC2(CC1)N=C([C@H]1CC[C@H](C)CC1)NC2=O [Compound 588, 2-(4-methyl-cyclohexyl)-8-{(E)-2-[2-methyl-4-(5-oxo-pyrazolidin-1-yl)-phenyl]-ethenesulfonyl}-1,3,8-triaza-spiro[4.5]dec-1-en-4-one] | 77 | 
Cc1cc(N2C(=O)NC(COC(C)(C)C)C2=O)cc(C)c1/C=C/S(=O)(=O)N1CCC2(CC1)N=C([C@H]1CC[C@H](C)CC1)NC2=O (stereo partly shown) [Compound 589, 5-tert-butoxymethyl-3-(3,5-dimethyl-4-{(E)-2-[2-(4-methyl-cyclohexyl)-4-oxo-1,3,8-triaza-spiro[4.5]dec-1-ene-8-sulfonyl]-vinyl}-phenyl)-imidazolidine-2,4-dione] | 22 | 
Cc1cc(S(=O)(=O)NCC(=O)N(C)C)ccc1/C=C/S(=O)(=O)N1CCC2(CC1)N=C(c1cccc(C(F)(F)F)c1)NC2=O [Compound 590, N,N-Dimethyl-2-(3-methyl-4-{(E)-2-[4-oxo-2-(3-trifluoromethyl-phenyl)-1,3,8-triaza-spiro[4.5]dec-1-ene-8-sulfonyl]-vinyl}-benzenesulfonylamino)-acetamide] | 70 | 
Cc1cc(S(=O)(=O)NCc2cccnc2)ccc1/C=C/S(=O)(=O)N1CCC2(CC1)N=C(c1cccc(C(F)(F)F)c1)NC2=O [Compound 591, 3-methyl-4-{(E)-2-[4-oxo-2-(3-trifluoromethyl-phenyl)-1,3,8-triaza-spiro[4.5]dec-1-ene-8-sulfonyl]-vinyl}-N-pyridin-3-ylmethyl-benzenesulfonamide] | 34 | 
Cc1cc(S(=O)(=O)NC2CCC(O)CC2)ccc1/C=C/S(=O)(=O)N1CCC2(CC1)N=C(c1cccc(C(F)(F)F)c1)NC2=O (stereo not shown) [Compound 592, N-(4-hydroxy-cyclohexyl)-3-methyl-4-{(E)-2-[4-oxo-2-(3-trifluoromethyl-phenyl)-1,3,8-triaza-spiro[4.5]dec-1-ene-8-sulfonyl]-vinyl}-benzenesulfonamide] | 87 | 
Cc1cc(S(C)(=O)=O)ccc1/C=C/S(=O)(=O)N1CCC2(CC1)N=C(c1cccc(C(F)(F)F)c1)NC2=O [Compound 593, 8-[(E)-2-(4-methanesulfonyl-2-methyl-phenyl)-ethenesulfonyl]-2-(3-trifluoromethyl-phenyl)-1,3,8-triaza-spiro[4.5]dec-1-en-4-one] | 28 | 
CC(=O)NS(=O)(=O)c1ccc(/C=C/S(=O)(=O)N2CCC3(CC2)N=C(c2cccc(C(F)(F)F)c2)NC3=O)c(C)c1 [Compound 594, N-acetyl-3-methyl-4-{(E)-2-[4-oxo-2-(3-trifluoromethyl-phenyl)-1,3,8-triaza-spiro[4.5]dec-1-ene-8-sulfonyl]-vinyl}-benzenesulfonamide] | 69 | 
Cc1cc(S(=O)(=O)NC(CO)(CO)CO)ccc1/C=C/S(=O)(=O)N1CCC2(CC1)N=C(c1cccc(C(F)(F)F)c1)NC2=O [Compound 595, N-(2-hydroxy-1,1-bis-hydroxymethyl-ethyl)-3-methyl-4-{(E)-2-[4-oxo-2-(3-trifluoromethyl-phenyl)-1,3,8-triaza-spiro[4.5]dec-1-ene-8-sulfonyl]-vinyl}-benzenesulfonamide] | 63 | 
Cc1cc(S(=O)(=O)NC2CCN(Cc3ccccc3)CC2)ccc1/C=C/S(=O)(=O)N1CCC2(CC1)N=C(c1cccc(OC(F)(F)F)c1)NC2=O [Compound 596, N-(1-Benzyl-piperidin-4-yl)-3-methyl-4-{(E)-2-[4-oxo-2-(3-trifluoromethoxy-phenyl)-1,3,8-triaza-spiro[4.5]dec-1-ene-8-sulfonyl]-vinyl}-benzenesulfonamide] | 40 | 
O=C1NC(c2cccc(OC(F)(F)F)c2)=NC12CCN(S(=O)(=O)/C=C/c1ccc3c(ccn3C[C@H](O)CO)c1)CC2 [Compound 597, 8-{(E)-2-[1-((S)-2,3-dihydroxy-propyl)-1H-indol-5-yl]-ethenesulfonyl}-2-(3-trifluoromethoxy-phenyl)-1,3,8-triaza-spiro[4.5]dec-1-en-4-one] | 51 | 
Cc1cc(C(=O)N2CCN(C(C)C)CC2)ccc1/C=C/S(=O)(=O)N1CCC2(CC1)N=C(c1cccc(OC(F)(F)F)c1)NC2=O [Compound 598, 8-{(E)-2-[4-(4-isopropyl-piperazine-1-carbonyl)-2-methyl-phenyl]-ethenesulfonyl}-2-(3-trifluoromethoxy-phenyl)-1,3,8-triaza-spiro[4.5]dec-1-en-4-one] | 74 | 
Cc1cc(S(=O)(=O)NC[C@@H](O)CO)ccc1/C=C/S(=O)(=O)N1CCC2(CC1)N=C(c1cccc(OC(F)(F)F)c1)NC2=O [Compound 599, N—((R)-2,3-dihydroxy-propyl)-3-methyl-4-{(E)-2-[4-oxo-2-(3-trifluoromethoxy-phenyl)-1,3,8-triaza-spiro[4.5]dec-1-ene-8-sulfonyl]-vinyl}-benzenesulfonamide] | 59 | 
O=C1NC(c2cccc(OC(F)(F)F)c2)=NC12CCN(S(=O)(=O)/C=C/c1cc(F)c(OCCC(O)CO)c(F)c1)CC2 (stereo not shown) [Compound 600, 8-{(E)-2-[4-(3,4-dihydroxy-butoxy)-3,5-difluoro-phenyl]-ethenesulfonyl}-2-(3-trifluoromethoxy-phenyl)-1,3,8-triaza-spiro[4.5]dec-1-en-4-one] | 67 | 
Cc1cc(/C=C/S(=O)(=O)N2CCC3(CC2)N=C(c2cccc(OC(F)(F)F)c2)NC3=O)cc(C)c1OCCC(O)CO (stereo not shown) [Compound 601, 8-{(E)-2-[4-(3,4-dihydroxy-butoxy)-3,5-dimethyl-phenyl]-ethenesulfonyl}-2-(3-trifluoromethoxy-phenyl)-1,3,8-triaza-spiro[4.5]dec-1-en-4-one] | 64 | 
Cc1cc(OC2CCN(C(=O)OC(C)(C)C)CC2)ccc1/C=C/S(=O)(=O)N1CCC2(CC1)N=C(c1cccc(OC(F)(F)F)c1)NC2=O [Compound 602, 4-(3-methyl-4-{(E)-2-[4-oxo-2-(3-trifluoromethoxy-phenyl)-1,3,8-triaza-spiro[4.5]dec-1-ene-8-sulfonyl]-vinyl}-phenoxy)-piperidine-1-carboxylic acid tert-butyl ester] | 3.0 | 
CC(=O)N(c1ccc(/C=C/S(=O)(=O)N2CCC3(CC2)N=C(c2cccc(OC(F)(F)F)c2)NC3=O)c(C)c1)C(C)C [Compound 603, N-isopropyl-N-(3-methyl-4-{(E)-2-[4-oxo-2-(3-trifluoromethoxy-phenyl)-1,3,8-triaza-spiro[4.5]dec-1-ene-8-sulfonyl]-vinyl}-phenyl)-acetamide] | 69 | 
CC(=O)N(c1ccc(/C=C/S(=O)(=O)N2CCC3(CC2)N=C(c2cccc(OC(F)(F)F)c2)NC3=O)c(C)c1)C1CCN(C(=O)OC(C)(C)C)CC1 [Compound 604, 4-[acetyl-(3-methyl-4-{(E)-2-[4-oxo-2-(3-trifluoromethoxy-phenyl)-1,3,8-triaza-spiro[4.5]dec-1-ene-8-sulfonyl]-vinyl}-phenyl)-amino]-piperidine-1-carboxylic acid tert-butyl ester] |  | 21
Cc1cc(N(CCO)C(N)=O)cc(C)c1/C=C/S(=O)(=O)N1CCC2(CC1)N=C(c1cccc(OC(F)(F)F)c1)NC2=O [Compound 605, 1-(3,5-dimethyl-4-{(E)-2-[4-oxo-2-(3-trifluoromethoxy-phenyl)-1,3,8-triaza-spiro[4.5]dec-1-ene-8-sulfonyl]-vinyl}-phenyl)-1-(2-hydroxy-ethyl)-urea] | 54 | 
Cc1cc(N2C(=O)CC[C@@H]2CNC(C)C)cc(C)c1/C=C/S(=O)(=O)N1CCC2(CC1)N=C(c1cccc(OC(F)(F)F)c1)NC2=O [Compound 606, 8-((E)-2-{4-[(R)-2-(isopropylamino-methyl)-5-oxo-pyrrolidin-1-yl]-2,6-dimethyl-phenyl}-ethenesulfonyl)-2-(3-trifluoromethoxy-phenyl)-1,3,8-triaza-spiro[4.5]dec-1-en-4-one] | 28 | 
CC(=O)N(CCN(C)C)c1cc(C)c(/C=C/S(=O)(=O)N2CCC3(CC2)N=C(c2cccc(OC(F)(F)F)c2)NC3=O)c(C)c1 [Compound 607, N-(2-dimethylamino-ethyl)-N-(3,5-dimethyl-4-{(E)-2-[4-oxo-2-(3-trifluoromethoxy-phenyl)-1,3,8-triaza-spiro[4.5]dec-1-ene-8-sulfonyl]-vinyl}-phenyl)-acetamide] | 6.5 | 
